This is an account of results in ChEMBL document CHEMBL1201862, “PubChem BioAssay data set” (2004).

Activity calls are given as the source filed them. Some results are limits rather than exact numbers.

The target in one data set is Cytochrome P450 2C9 (Homo sapiens, UniProt P11712).
The next data set deals with T1, Cytochrome P450 1A2 (Homo sapiens, UniProt P05177).
T1 sequence (P05177 whole entry): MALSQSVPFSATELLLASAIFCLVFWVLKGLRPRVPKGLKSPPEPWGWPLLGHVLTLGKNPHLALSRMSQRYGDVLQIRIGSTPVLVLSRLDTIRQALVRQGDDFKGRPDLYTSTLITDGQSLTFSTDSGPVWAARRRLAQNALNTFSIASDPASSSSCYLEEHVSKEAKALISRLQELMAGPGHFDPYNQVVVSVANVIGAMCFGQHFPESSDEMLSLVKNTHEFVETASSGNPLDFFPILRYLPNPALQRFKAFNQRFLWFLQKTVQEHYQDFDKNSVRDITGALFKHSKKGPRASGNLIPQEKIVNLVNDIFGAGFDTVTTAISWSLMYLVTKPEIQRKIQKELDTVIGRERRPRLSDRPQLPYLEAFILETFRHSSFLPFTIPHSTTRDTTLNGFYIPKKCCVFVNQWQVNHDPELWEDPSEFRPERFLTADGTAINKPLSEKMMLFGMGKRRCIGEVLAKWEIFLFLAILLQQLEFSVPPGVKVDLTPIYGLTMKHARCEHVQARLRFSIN

The target of the next data set is Cytochrome P450 2C19 (Homo sapiens, UniProt P33261). Put plainly: Cytochrome panel assay with activity outcomes. Panel member name: p450-cyp2c19 Compounds with AC50 equal or less than 10 uM are considered active. Format: functional. To be noted: read-out: AC50.
Chain of Cytochrome P450 2C19 (P33261 whole entry): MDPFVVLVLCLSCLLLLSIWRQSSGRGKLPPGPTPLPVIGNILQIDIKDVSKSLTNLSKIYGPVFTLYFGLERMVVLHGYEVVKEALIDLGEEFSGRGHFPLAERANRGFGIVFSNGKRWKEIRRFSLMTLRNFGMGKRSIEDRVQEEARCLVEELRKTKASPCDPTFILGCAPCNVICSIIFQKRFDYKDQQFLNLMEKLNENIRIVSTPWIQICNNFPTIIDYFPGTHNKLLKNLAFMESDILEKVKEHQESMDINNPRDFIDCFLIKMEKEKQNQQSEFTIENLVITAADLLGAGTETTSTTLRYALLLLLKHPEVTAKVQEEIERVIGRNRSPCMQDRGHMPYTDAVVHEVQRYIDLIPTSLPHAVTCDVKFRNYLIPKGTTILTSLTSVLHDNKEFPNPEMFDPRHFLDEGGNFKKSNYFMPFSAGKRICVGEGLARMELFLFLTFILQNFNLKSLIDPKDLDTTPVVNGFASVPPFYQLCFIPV
The next data set concerns the target SUMO-activating enzyme (Homo sapiens, UniProt Q9UBT2). Nature of the data set: SUMOylation inhibitor hit validation, confirmation, SUMOylation inhibitor project, biochemical, AlphaScreen (AID 2018). Format: functional. In general terms: In Alpha technology, singlet oxygen from a donor bead excites a nearby acceptor bead.
Data set [1] deals with T2, Microphthalmia-associated transcription factor (Homo sapiens, UniProt O75030).
T2 sequence (O75030 whole entry): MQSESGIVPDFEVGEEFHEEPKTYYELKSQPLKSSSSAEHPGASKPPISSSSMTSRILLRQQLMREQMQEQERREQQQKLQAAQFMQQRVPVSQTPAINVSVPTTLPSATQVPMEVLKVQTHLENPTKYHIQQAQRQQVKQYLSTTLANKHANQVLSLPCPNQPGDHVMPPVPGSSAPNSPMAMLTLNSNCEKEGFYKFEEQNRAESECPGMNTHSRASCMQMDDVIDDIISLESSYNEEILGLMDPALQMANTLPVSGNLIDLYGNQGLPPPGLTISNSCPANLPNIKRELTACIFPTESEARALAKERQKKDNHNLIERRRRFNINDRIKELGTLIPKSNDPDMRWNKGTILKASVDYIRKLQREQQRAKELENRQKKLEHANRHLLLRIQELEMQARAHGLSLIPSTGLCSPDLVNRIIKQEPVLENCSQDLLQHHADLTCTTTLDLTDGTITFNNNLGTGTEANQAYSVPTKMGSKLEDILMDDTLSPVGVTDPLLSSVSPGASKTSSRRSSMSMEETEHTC
Put plainly: TRPM1 promoter luciferase signal decrease, dose response, MITF inhibitor project, cell-based, SK-MEL-5, cherry-picked, set 3 (AID 493073).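 Note: SK-MEL-5 melanoma cells with luciferase driven by the MITF target TRPM1 promoter.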 It is filed as functional.

The nature of data set [2]: NIH-3T3 fibroblast cytotoxicity, dose response, cytotoxicity control, cell-based, fluorescence, Alamar Blue, secondary assay (AID 2327).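 Note: NIH-3T3 mouse fibroblasts cultured with fluconazole at 8 µg/mL.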 It is filed as functional. (In general: Alamar Blue is a resazurin reagent that responds to reducing activity.)
In another data set the target is Protein Wnt-3a (Mus musculus, UniProt P27467). Put plainly: Wnt3a-driven reporter signaling inhibition, dose response, selectivity assay for Gli-SUFU antagonist project, Wnt-LIGHT cells, luminescence (AID 651570).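 Note: Wnt-LIGHT reporter cells stimulated with conditioned medium from Wnt3a-producing cells.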 Format: functional. To be noted: read-out: IC50_Mean.
Chain of Protein Wnt-3a (P27467 whole entry): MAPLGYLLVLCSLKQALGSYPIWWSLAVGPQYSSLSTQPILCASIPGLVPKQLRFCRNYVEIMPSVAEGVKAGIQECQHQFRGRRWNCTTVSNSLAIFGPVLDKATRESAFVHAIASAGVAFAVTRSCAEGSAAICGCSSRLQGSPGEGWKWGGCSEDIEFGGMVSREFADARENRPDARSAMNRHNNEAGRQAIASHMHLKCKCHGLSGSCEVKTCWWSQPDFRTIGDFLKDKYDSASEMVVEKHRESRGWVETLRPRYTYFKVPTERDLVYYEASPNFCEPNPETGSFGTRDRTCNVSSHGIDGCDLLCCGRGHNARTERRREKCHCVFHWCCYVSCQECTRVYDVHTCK
The test system of another data set is INS1. Put plainly: beta cell apoptosis inhibitors, cytokine rescue, dose response, luminescence, retest (AID 449756).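 Note: cell death triggered by IL-1 beta plus TNF-alpha plus IFN-gamma mixture; protective hits raise ATP signal compared with cytokine alone wells.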 To be noted: Rattus norvegicus. Format: functional, cell-based.
A short description of data set [3]: C. albicans growth with fluconazole, confirmation, fluorescence, retest (AID 2467). It is filed as functional, cell-based.
The test system of the next data set is Vero. Put plainly: cells. The conditions noted are these: Chlorocebus sabaeus. It is filed as functional.
The target in data set [4] is Glyceraldehyde-3-phosphate dehydrogenase (Homo sapiens, UniProt P04406).
Chain of Glyceraldehyde-3-phosphate dehydrogenase (P04406 whole entry): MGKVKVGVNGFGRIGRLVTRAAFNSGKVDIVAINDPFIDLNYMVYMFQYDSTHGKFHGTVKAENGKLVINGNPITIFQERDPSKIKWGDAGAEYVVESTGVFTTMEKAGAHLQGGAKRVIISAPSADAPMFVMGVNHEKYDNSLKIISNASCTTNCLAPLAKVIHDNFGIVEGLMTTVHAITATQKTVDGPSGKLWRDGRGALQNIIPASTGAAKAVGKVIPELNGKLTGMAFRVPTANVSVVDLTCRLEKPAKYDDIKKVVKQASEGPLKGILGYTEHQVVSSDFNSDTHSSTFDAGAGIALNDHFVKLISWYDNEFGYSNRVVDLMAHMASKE
The target of data set [5] is T3, Dual specificity protein phosphatase 6 (Rattus norvegicus, UniProt Q64346).
T3 sequence (Q64346 whole entry): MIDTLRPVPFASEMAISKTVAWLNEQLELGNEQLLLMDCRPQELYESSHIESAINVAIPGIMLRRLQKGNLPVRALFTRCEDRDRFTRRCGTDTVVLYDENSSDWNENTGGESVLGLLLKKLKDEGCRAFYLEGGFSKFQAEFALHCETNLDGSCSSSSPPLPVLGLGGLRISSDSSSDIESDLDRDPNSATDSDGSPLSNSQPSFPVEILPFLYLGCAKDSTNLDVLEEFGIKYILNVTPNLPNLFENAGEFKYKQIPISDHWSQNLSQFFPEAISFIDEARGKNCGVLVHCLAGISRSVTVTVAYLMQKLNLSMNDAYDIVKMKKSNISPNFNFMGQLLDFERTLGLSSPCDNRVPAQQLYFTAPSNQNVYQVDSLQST

Data set [6] addresses T4, Tyrosine-protein phosphatase non-receptor type 7 (Homo sapiens, UniProt P35236).
T4 sequence (P35236 whole entry): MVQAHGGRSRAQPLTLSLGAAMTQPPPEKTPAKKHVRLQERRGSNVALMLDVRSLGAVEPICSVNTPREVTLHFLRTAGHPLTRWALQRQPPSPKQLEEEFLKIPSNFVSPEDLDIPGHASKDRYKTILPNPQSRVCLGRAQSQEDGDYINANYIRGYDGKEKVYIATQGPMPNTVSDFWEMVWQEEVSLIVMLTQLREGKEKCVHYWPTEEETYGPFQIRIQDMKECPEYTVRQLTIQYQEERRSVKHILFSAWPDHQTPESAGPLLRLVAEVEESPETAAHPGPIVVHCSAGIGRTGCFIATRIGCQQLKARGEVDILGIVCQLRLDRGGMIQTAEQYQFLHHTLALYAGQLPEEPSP
It is filed as functional.

In data set [7] the target is T3, Dual specificity protein phosphatase 6. It is filed as functional.
The subject of data set [8] is HEK293. Nature of the data set: NOD2 signaling inhibitors in MDP-stimulated cells, cell-based, uHTS, luminescence (AID 2001). It is filed as functional. The conditions noted are these: Homo sapiens.
In data set [9] the test system is HEK293. Nature of the data set: cells. It is filed as functional, cell-based. The conditions noted are these: Homo sapiens.
For data set [10], the system named is HEK293. Nature of the data set: NOD1 signaling inhibitors, primary screen, cell-based, luminescence, uHTS (AID 1578). It is filed as functional. The conditions noted are these: Homo sapiens.
Data set [11] deals with HEK293. Nature of the data set: cells. It is filed as functional, cell-based. The conditions noted are these: Homo sapiens. This is another data set of the same source.
The target in data set [12] is T5, Ubiquitin-conjugating enzyme E2 N (Homo sapiens, UniProt P61088).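 Note: Dose-response confirmation in a TR-FRET assay detecting UBC13-driven polyubiquitin chain formation, inhibition measured.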
T5 sequence (P61088 whole entry): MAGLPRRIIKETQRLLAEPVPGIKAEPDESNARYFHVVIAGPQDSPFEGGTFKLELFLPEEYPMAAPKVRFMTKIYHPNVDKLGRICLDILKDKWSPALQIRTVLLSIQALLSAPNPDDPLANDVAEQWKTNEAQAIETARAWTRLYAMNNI
Format: functional.

Data set [13] has as its target Delta-type opioid receptor (Homo sapiens, UniProt P41143). Put plainly: Counterscreen for agonists of heterodimerization of the mu 1 (OPRM1) and delta 1 (OPRD1) opioid receptors: Luminescence-based cell-based high throughput dose response assay to identify agonists of OPRD1 homodimerization. [Related pubchem assays (depositor defined):AID504326, AID504355, AID504692, AID504904, AID504905]. Format: functional. (In general: The purpose of a counterscreen is to sort out artefacts and off-target activity.)

Data set [14] deals with 5-hydroxytryptamine receptor 5A (Homo sapiens, UniProt P47898). Put plainly: Counterscreen for agonists of OPRM1-OPRD1 heterodimerization: luminescence-based cell-based high throughput dose response assay to identify agonists of 5-hydroxytryptamine (serotonin) 5A receptor (HTR5A). [Related pubchem assays (depositor defined):AID504326, AID504355, AID504692, AID504904, AID504905]. It is filed as functional.
Chain of 5-hydroxytryptamine receptor 5A (P47898 whole entry): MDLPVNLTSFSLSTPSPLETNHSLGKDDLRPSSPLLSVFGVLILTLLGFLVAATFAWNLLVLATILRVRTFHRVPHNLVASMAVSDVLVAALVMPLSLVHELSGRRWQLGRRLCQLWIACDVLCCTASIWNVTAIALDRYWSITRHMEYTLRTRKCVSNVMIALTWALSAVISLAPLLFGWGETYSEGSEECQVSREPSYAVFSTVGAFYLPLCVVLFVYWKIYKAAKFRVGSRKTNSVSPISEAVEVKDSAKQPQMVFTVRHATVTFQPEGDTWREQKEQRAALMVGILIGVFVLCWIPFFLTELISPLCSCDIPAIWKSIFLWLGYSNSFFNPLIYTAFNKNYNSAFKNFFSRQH

A further data set concerns the target Mu-type opioid receptor (Homo sapiens, UniProt P35372). Nature of the data set: Counterscreen for agonists of heterodimerization of the mu 1 (OPRM1) and delta 1 (OPRD1) opioid receptors: Luminescence-based cell-based high throughput dose response assay to identify agonists of OPRM1 homodimerization. Format: functional.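 Note: U2OS cells expressing OPRM1 and beta-arrestin as split beta-galactosidase partners.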
The target in data set [15] is T6, Short transient receptor potential channel 4 (Mus musculus, UniProt Q9QUQ5).
T6 sequence (Q9QUQ5 whole entry): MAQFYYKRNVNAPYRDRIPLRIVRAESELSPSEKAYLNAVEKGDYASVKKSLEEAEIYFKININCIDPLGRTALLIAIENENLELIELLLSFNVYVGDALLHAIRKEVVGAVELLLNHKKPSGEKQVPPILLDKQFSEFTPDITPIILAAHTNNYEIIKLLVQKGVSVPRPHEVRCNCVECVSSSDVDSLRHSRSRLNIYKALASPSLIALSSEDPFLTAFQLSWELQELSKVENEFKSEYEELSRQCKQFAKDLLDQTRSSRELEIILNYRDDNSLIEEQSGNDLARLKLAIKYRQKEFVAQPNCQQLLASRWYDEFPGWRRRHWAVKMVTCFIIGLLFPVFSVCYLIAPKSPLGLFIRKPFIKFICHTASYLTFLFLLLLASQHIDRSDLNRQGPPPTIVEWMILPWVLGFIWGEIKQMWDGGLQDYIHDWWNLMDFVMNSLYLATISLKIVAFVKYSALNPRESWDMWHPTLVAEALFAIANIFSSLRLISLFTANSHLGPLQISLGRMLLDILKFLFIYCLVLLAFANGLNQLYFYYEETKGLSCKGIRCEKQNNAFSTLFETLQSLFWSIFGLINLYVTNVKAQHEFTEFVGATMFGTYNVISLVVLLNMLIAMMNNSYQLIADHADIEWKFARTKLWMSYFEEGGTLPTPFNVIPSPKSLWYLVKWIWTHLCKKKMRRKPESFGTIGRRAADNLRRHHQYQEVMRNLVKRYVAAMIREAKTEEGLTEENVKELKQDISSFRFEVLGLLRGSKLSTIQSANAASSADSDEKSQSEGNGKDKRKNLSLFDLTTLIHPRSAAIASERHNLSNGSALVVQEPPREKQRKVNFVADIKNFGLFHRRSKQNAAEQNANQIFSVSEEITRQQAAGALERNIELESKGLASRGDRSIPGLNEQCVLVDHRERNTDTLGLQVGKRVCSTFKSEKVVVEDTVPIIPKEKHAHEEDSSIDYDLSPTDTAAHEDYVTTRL
Put plainly: mouse TRPC4 channel activators, dose response, cell-based, HEK293 TRPC4/mu-opioid, Fluo-4 calcium (AID 434937). Format: functional.

Chain of Cytochrome P450 2C9 (P11712 whole entry): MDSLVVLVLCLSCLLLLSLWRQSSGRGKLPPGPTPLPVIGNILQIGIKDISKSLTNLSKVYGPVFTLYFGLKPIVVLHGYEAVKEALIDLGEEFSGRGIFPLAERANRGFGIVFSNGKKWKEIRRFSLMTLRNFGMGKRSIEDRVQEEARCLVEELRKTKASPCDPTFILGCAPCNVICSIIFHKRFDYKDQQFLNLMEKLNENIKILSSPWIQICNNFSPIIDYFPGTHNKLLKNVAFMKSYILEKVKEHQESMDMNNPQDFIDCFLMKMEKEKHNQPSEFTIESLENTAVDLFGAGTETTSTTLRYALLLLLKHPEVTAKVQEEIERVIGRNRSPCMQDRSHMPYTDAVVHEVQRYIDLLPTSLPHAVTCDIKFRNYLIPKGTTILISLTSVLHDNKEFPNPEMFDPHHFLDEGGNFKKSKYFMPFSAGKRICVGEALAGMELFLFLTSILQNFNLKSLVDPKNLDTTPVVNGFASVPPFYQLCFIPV
Chain of Mu-type opioid receptor (P35372 whole entry): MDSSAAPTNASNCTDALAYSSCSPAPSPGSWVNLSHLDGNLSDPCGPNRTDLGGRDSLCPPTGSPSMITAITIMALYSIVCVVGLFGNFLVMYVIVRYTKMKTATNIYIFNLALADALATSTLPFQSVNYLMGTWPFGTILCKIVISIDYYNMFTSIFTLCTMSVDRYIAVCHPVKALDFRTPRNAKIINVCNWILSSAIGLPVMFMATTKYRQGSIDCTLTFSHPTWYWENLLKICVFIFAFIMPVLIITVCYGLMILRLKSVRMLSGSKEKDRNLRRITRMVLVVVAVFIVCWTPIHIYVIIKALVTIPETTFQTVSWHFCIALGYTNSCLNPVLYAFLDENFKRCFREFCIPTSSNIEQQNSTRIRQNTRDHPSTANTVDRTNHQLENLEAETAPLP
Chain of Delta-type opioid receptor (P41143 whole entry): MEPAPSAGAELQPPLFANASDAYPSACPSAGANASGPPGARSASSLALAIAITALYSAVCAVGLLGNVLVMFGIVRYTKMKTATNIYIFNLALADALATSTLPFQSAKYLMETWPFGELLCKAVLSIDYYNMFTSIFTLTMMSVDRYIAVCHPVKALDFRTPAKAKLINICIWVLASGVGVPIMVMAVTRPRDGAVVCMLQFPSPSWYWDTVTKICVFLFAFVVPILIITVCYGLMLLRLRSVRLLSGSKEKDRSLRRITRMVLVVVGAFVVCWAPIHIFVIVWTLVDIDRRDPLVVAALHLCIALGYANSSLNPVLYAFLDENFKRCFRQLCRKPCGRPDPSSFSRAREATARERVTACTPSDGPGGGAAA
Chain of SUMO-activating enzyme (Q9UBE0 whole entry): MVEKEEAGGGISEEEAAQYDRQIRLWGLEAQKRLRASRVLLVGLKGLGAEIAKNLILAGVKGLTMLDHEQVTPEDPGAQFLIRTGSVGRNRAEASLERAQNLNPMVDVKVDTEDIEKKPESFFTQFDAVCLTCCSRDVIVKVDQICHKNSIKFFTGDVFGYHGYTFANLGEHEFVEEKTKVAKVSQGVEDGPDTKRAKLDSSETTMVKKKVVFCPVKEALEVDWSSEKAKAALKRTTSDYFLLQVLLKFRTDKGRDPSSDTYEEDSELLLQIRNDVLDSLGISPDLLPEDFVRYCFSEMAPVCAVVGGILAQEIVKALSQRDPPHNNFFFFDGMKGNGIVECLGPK
Chain of SUMO-activating enzyme (Q9UBT2 whole entry): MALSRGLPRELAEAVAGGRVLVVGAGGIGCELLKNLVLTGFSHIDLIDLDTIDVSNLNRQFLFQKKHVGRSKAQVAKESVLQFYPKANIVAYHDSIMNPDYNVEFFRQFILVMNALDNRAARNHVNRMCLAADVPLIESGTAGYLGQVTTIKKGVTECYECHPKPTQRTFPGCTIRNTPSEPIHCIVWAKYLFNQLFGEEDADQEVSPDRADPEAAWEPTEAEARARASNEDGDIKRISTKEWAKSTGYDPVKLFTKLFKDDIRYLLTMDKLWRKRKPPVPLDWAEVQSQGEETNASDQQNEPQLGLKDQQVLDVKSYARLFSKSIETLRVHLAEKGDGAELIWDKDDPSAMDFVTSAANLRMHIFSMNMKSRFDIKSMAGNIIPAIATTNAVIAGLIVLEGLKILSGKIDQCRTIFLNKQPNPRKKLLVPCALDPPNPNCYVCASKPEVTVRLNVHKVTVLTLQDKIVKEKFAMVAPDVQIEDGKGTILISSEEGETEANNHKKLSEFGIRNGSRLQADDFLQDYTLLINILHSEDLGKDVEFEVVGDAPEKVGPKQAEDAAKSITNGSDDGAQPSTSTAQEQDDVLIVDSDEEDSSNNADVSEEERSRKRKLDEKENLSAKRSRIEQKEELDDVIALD

As for `C[C@@]12CC[C@@H]3c4ccc(O)cc4CC[C@H]3[C@H]1CC[C@H]2O`, the AC50 – broadly, the concentration giving half of the maximal activity seen – was “inconclusive” at Cytochrome P450 2C9 and 5.01 µM (inconclusive) on Cytochrome P450 1A2.

On to `O=C(NNC(=O)c1sc2ccccc2c1Cl)Nc1ccc(Cl)cc1`, for which the AC50 result on Cytochrome P450 2C9 was “inconclusive”; at Cytochrome P450 2C19, 3.55 µM (inconclusive). For the same molecule, the IC50 at SUMO-activating enzyme was 25.8 µM (active).

`CCOc1ccc(N2C(=O)/C(=C\NNc3nc(C)cc(C)n3)c3ccccc3C2=O)cc1`: the half-maximal activity concentration (AC50) is 3.48 µM (active) in [1] and 2.24 µM (active) in the data set on INS1. Further, the EC50 (in general, the concentration giving half of the maximal effect) was 47.9 µM (active) in [2] and > 38 µM (not active) in data set [3]. The IC50 at Protein Wnt-3a is 11.2 µM (active). Also, the CC50 (in general, the concentration at which the toxic effect on the cells reaches its halfway point) in the data set with Vero was 10.3 µM (active).

Consider `COCCCNc1nc(=O)n(-c2ccc(F)cc2)c(=O)[nH]1`, for which the IC50 in data set [4] is > 100 µM (not active); in data set [5], > 100 µM (inactive); in [6] it was > 100 µM (not active); in data set [7], > 100 µM (inactive).

With `Cn1c(=O)n(CC(N)=O)c(=O)n(-c2ccccc2)c1=O`, the IC50 in [4] is > 100 µM (not active); in data set [5], > 100 µM (inactive); in data set [6], > 100 µM (not active); in data set [7], > 100 µM (inactive).

Regarding `Cc1cccc(NC(=O)c2cccc(NS(=O)(=O)c3ccc(Cl)cc3)c2)c1`, the results for the IC50 in the data set with HEK293 [8], in the data set with HEK293 [9] and in the data set with HEK293 [11] were 12.6 µM (inactive), > 20 µM (inactive) and > 20 µM (inactive), respectively. The EC50 in the data set on HEK293 [10] was 9.39 µM (active).

Turning to `Clc1cccc(Cl)c1COc1nnc(-c2cccs2)c(-c2cccs2)n1`, the IC50 in data set [4] is > 100 µM (not active); in [5], > 100 µM (inactive); in data set [6], > 100 µM (not active); in data set [7], > 100 µM (inactive).

For the molecule `CC[C@@H](C)[C@@H]1CN([C@@H](CN2CCC[C@H]2CN2C(N)=NC[C@H]2C(C)C)C(C)C)C(=N)N1CCc1ccc(Cl)c(Cl)c1`, the IC50 in data set [12] was > 20 µM (inactive). Besides, the EC50 in [13] is > 92.5 µM (inactive); in [14] it was > 92.5 µM (inactive); on Mu-type opioid receptor, 10.9 µM (inactive).

Take `CN(C)c1ccc(C(CNC(=O)Cc2cccc3ccccc23)N(C)C)cc1` (stereo not given): the concentration for a half-maximal effect (EC50) in data set [15] is 0.944 µM (active); in data set [13], > 92.4 µM (inactive); in data set [14], > 92.4 µM (inactive); at Mu-type opioid receptor, > 92.4 µM (inactive).
